Assay results published in PubChem BioAssay AID1259407 (Chemical Carcinogenesis Research Information System (CCRIS), 2018).
The source made the active and inactive calls. How the calls were made is not given here.

Test system: CCRIS mutagenicity, Ames/micronucleus/aberration tests
Assay: CCRIS mutagenicity studies
[1] = Test System: AMES SALMONELLA TYPHIMURIUM, Strain/Indicator: TA98, Metabolic Activation: NONE, Method: PREINCUBATION
[2] = Test System: AMES SALMONELLA TYPHIMURIUM, Strain/Indicator: TA100, Metabolic Activation: NONE, Method: PREINCUBATION
[3] = Test System: AMES SALMONELLA TYPHIMURIUM, Strain/Indicator: TA1535, Metabolic Activation: NONE, Method: PREINCUBATION
[4] = Test System: AMES SALMONELLA TYPHIMURIUM, Strain/Indicator: TA1537, Metabolic Activation: NONE, Method: PREINCUBATION
[5] = Test System: AMES SALMONELLA TYPHIMURIUM, Strain/Indicator: TA98, Metabolic Activation: NONE, Method: STANDARD PLATE
[6] = Test System: AMES SALMONELLA TYPHIMURIUM, Strain/Indicator: TA100, Metabolic Activation: NONE, Method: STANDARD PLATE
[7] = Test System: AMES SALMONELLA TYPHIMURIUM, Strain/Indicator: TA1535, Metabolic Activation: NONE, Method: STANDARD PLATE
[8] = Test System: AMES SALMONELLA TYPHIMURIUM, Strain/Indicator: TA1537, Metabolic Activation: NONE, Method: STANDARD PLATE
[9] = Test System: AMES SALMONELLA TYPHIMURIUM, Strain/Indicator: TA1538, Metabolic Activation: NONE, Method: STANDARD PLATE
[10] = Test System: AMES SALMONELLA TYPHIMURIUM, Strain/Indicator: TA1538, Metabolic Activation: RAT, LIVER, S-9, AROCLOR 1254, Method: STANDARD PLATE

In the case of C=CC(=O)OCC(CO)(COC(=O)C=C)COC(=O)C=C, the mutagenic call (End Point: In vivo micronucleus, Test System: Peripheral blood normochromatic erythrocytes, Species: Mouse, Strain/Sex: B6C3F1/Female) is reported as “inactive; negative”, the mutagenic call (End Point: In vivo micronucleus, Test System: Peripheral blood normochromatic erythrocytes, Species: Mouse, Strain/Sex: B6C3F1/Male, Route: Dermal) is reported as “inactive; negative” and the mutagenic call (End Point: In vivo micronucleus, Test System: Peripheral blood normochromatic erythrocytes, Species: Mouse, Strain/Sex: FVB.N/TgN (v-Ha-ras) Tg.AC hemizygous/Female, Route: Dermal) is reported as “active; positive”. For the same compound, the mutagenic call (End Point: In vivo micronucleus, Test System: Peripheral blood normochromatic erythrocytes, Species: Mouse, Strain/Sex: FVB.N/TgN (v-Ha-ras) Tg.AC hemizygous/Male, Route: Dermal) was “inactive; negative (described as equivocal by ntp)”, the mutagenic call (Test System: AMES SALMONELLA TYPHIMURIUM, Strain/Indicator: TA98, Metabolic Activation: HAMSTER, LIVER, S-9, AROCLOR 1254 (10%), Method: PREINCUBATION) was “inactive; negative” and the mutagenic call [1] was “inactive; negative”. For the same compound, the mutagenic call (Test System: AMES SALMONELLA TYPHIMURIUM, Strain/Indicator: TA98, Metabolic Activation: RAT, LIVER, S-9, AROCLOR 1254 (10%), Method: PREINCUBATION) was “inactive; negative”, the mutagenic call (Test System: AMES SALMONELLA TYPHIMURIUM, Strain/Indicator: TA100, Metabolic Activation: HAMSTER, LIVER, S-9, AROCLOR 1254 (10%), Method: PREINCUBATION) was “inactive; negative” and the mutagenic call [2] was “inactive; negative”. The mutagenic call (Test System: AMES SALMONELLA TYPHIMURIUM, Strain/Indicator: TA100, Metabolic Activation: RAT, LIVER, S-9, AROCLOR 1254 (10%), Method: PREINCUBATION) was “inactive; negative”, the mutagenic call (Test System: AMES SALMONELLA TYPHIMURIUM, Strain/Indicator: TA1535, Metabolic Activation: HAMSTER, LIVER, S-9, AROCLOR 1254 (10%), Method: PREINCUBATION) was “inactive; negative” and the mutagenic call [3] was “inactive; negative”. For the same compound, the mutagenic call (Test System: AMES SALMONELLA TYPHIMURIUM, Strain/Indicator: TA1535, Metabolic Activation: RAT, LIVER, S-9, AROCLOR 1254 (10%), Method: PREINCUBATION) was “inactive; negative”, the mutagenic call (Test System: AMES SALMONELLA TYPHIMURIUM, Strain/Indicator: TA1537, Metabolic Activation: HAMSTER, LIVER, S-9, AROCLOR 1254 (10%), Method: PREINCUBATION) was “inactive; negative” and the mutagenic call [4] was “inactive; negative”. For the same compound, the mutagenic call (Test System: AMES SALMONELLA TYPHIMURIUM, Strain/Indicator: TA1537, Metabolic Activation: RAT, LIVER, S-9, AROCLOR 1254 (10%), Method: PREINCUBATION) was “inactive; negative” and the mutagenic call (Test System: MOUSE LYMPHOMA, Strain/Indicator: L5178Y (TK+/TK-), Metabolic Activation: NONE, Method: SUSPENSION/PLATE) was “active; positive”.
With Cc1cc(N)c(S(=O)(=O)O)cc1Cl the mutagenic call [1] was “inactive; negative”, the mutagenic call (Test System: AMES SALMONELLA TYPHIMURIUM, Strain/Indicator: TA98, Metabolic Activation: RAT, LIVER, S-9, KC 500, Method: PREINCUBATION) was “inactive; negative” and the mutagenic call [2] was “inactive; negative”. For the same compound, the mutagenic call (Test System: AMES SALMONELLA TYPHIMURIUM, Strain/Indicator: TA100, Metabolic Activation: RAT, LIVER, S-9, KC 500, Method: PREINCUBATION) was “inactive; negative”, the mutagenic call [3] was “inactive; negative” and the mutagenic call (Test System: AMES SALMONELLA TYPHIMURIUM, Strain/Indicator: TA1535, Metabolic Activation: RAT, LIVER, S-9, KC 500, Method: PREINCUBATION) was “inactive; negative”. The mutagenic call [4] was “inactive; negative”, the mutagenic call (Test System: AMES SALMONELLA TYPHIMURIUM, Strain/Indicator: TA1537, Metabolic Activation: RAT, LIVER, S-9, KC 500, Method: PREINCUBATION) was “inactive; negative” and the mutagenic call (Test System: AMES SALMONELLA TYPHIMURIUM, Strain/Indicator: TA1538, Metabolic Activation: NONE, Method: PREINCUBATION) was “inactive; negative”. For the same compound, the mutagenic call (Test System: AMES SALMONELLA TYPHIMURIUM, Strain/Indicator: TA1538, Metabolic Activation: RAT, LIVER, S-9, KC 500, Method: PREINCUBATION) was “inactive; negative”, the mutagenic call (Test System: E. COLI, Strain/Indicator: WP2 UVRA, Metabolic Activation: NONE, Method: PREINCUBATION) was “inactive; negative” and the mutagenic call (Test System: E. COLI, Strain/Indicator: WP2 UVRA, Metabolic Activation: RAT, LIVER, S-9, KC 500, Method: PREINCUBATION) was “inactive; negative”.
Cc1cc(N)cc(C)c1N was tested, and the mutagenic call [5] was “inactive; negative”, the mutagenic call (Test System: AMES SALMONELLA TYPHIMURIUM, Strain/Indicator: TA98, Metabolic Activation: RAT, LIVER, S-9, AROCLOR 1254, Method: STANDARD PLATE) was “inactive; negative” and the mutagenic call [6] was “inactive; negative”. For the same compound, the mutagenic call (Test System: AMES SALMONELLA TYPHIMURIUM, Strain/Indicator: TA100, Metabolic Activation: RAT, LIVER, S-9, AROCLOR 1254, Method: STANDARD PLATE) was “inactive; negative”, the mutagenic call [7] was “inactive; negative” and the mutagenic call (Test System: AMES SALMONELLA TYPHIMURIUM, Strain/Indicator: TA1535, Metabolic Activation: RAT, LIVER, S-9, AROCLOR 1254, Method: STANDARD PLATE) was “inactive; negative”. For the same compound, the mutagenic call [8] was “inactive; negative”, the mutagenic call (Test System: AMES SALMONELLA TYPHIMURIUM, Strain/Indicator: TA1537, Metabolic Activation: RAT, LIVER, S-9, AROCLOR 1254, Method: STANDARD PLATE) was “inactive; negative” and the mutagenic call [9] was “inactive; negative”. For the same compound, the mutagenic call [10] was “inactive; negative”.
Cc1c2c(c(CO)c3ccc4ccccc4c13)[C@H](O)[C@@H](O)C=C2 was tested, and the mutagenic call (Test System: CHINESE HAMSTER V-79, Strain/Indicator: V-79/6-THIOGUANINE, Metabolic Activation: CELL-MEDIATED, Method: STANDARD PLATE) was “active; positive” and the mutagenic call (Test System: CHINESE HAMSTER V-79, Strain/Indicator: V-79/OUABAIN, Metabolic Activation: CELL-MEDIATED, Method: STANDARD PLATE) was “active; positive”.
In the case of C=CC(=O)OCCOC(=O)C=C, the mutagenic call (Test System: AMES SALMONELLA TYPHIMURIUM, Strain/Indicator: TA98, Metabolic Activation: HAMSTER, LIVER, S-9, AROCLOR 1254, Method: STANDARD PLATE) is reported as “inactive; negative”, the mutagenic call [5] is reported as “inactive; negative” and the mutagenic call (Test System: AMES SALMONELLA TYPHIMURIUM, Strain/Indicator: TA98, Metabolic Activation: RAT, LIVER, S-9, SODIUM PHENOBARBITAL, Method: STANDARD PLATE) is reported as “inactive; negative”. The mutagenic call (Test System: AMES SALMONELLA TYPHIMURIUM, Strain/Indicator: TA100, Metabolic Activation: HAMSTER, LIVER, S-9, AROCLOR 1254, Method: STANDARD PLATE) was “inactive; negative”, the mutagenic call [6] was “inactive; negative” and the mutagenic call (Test System: AMES SALMONELLA TYPHIMURIUM, Strain/Indicator: TA100, Metabolic Activation: RAT, LIVER, S-9, SODIUM PHENOBARBITAL, Method: STANDARD PLATE) was “inactive; negative”. For the same compound, the mutagenic call (Test System: AMES SALMONELLA TYPHIMURIUM, Strain/Indicator: TA1535, Metabolic Activation: HAMSTER, LIVER, S-9, AROCLOR 1254, Method: STANDARD PLATE) was “inactive; negative”, the mutagenic call [7] was “inactive; negative” and the mutagenic call (Test System: AMES SALMONELLA TYPHIMURIUM, Strain/Indicator: TA1535, Metabolic Activation: RAT, LIVER, S-9, SODIUM PHENOBARBITAL, Method: STANDARD PLATE) was “inactive; negative”. For the same compound, the mutagenic call (Test System: AMES SALMONELLA TYPHIMURIUM, Strain/Indicator: TA1537, Metabolic Activation: HAMSTER, LIVER, S-9, AROCLOR 1254, Method: STANDARD PLATE) was “inactive; negative”, the mutagenic call [8] was “inactive; negative” and the mutagenic call (Test System: AMES SALMONELLA TYPHIMURIUM, Strain/Indicator: TA1537, Metabolic Activation: RAT, LIVER, S-9, SODIUM PHENOBARBITAL, Method: STANDARD PLATE) was “inactive; negative”. The mutagenic call [9] was “inactive; negative”, the mutagenic call [10] was “inactive; negative” and the mutagenic call (Test System: AMES SALMONELLA TYPHIMURIUM, Strain/Indicator: TA1538, Metabolic Activation: RAT, LIVER, S-9, SODIUM PHENOBARBITAL, Method: STANDARD PLATE) was “inactive; negative”.
